The values that follow come from patent publication US20020183313A1, “1,4-benzodiazepinones and their uses as CCK antagonists” (Fujisawa Pharmaceutical Co., Ltd., priority 1996, published 2002).

The target in series [1] is T1, guinea-pig cerebral cortical membranes (125I-CCK-8 binding) (Cavia porcellus, UniProt H0VZC5).
T1 construct: from tissue; host or cells: guinea-pig cerebral cortex membranes
T1 sequence (H0VZC5 1-426): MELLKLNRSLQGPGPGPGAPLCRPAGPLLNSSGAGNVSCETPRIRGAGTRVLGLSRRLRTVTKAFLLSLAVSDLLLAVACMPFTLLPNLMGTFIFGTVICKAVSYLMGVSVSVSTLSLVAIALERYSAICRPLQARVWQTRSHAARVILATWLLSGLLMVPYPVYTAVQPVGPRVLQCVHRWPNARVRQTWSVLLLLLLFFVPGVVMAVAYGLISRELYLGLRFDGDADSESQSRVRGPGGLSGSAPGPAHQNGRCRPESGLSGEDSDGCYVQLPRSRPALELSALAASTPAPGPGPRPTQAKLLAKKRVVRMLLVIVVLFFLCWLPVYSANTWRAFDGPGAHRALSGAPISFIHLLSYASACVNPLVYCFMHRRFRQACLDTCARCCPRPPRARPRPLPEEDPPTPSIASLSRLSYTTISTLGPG
Briefly: [125I]CCK-8 binding to guinea-pig cerebral cortical membranes. The settings on record: test compound 1×10^−8 M; 50 pM 125I-CCK-8; 60 minutes at 37° C. The protocol:
[^125I]CCK-8 binding to guinea-pig cerebral cortical membranes
Guinea-pigs were killed by decapitation and bled to death. Cerebral cortex was removed, minced in a small quantity of 50 mM Tris-HCl buffer (pH 7.4), and homogenized in 20 vol. of the buffer by a glass-teflon homogenizer. The homogenate was centrifuged at 30000× g (16000 rpm) for 10 minutes. The pellet was then resuspended in the same buffer by a glass-teflon homogenizer and recentrifuged at 30000× g for 10 minutes. This procedure (washings) was repeated twice more. The final pellet (membrane) was suspended in incubation medium (see below) so as to obtain a final protein concentration of 4 mg/ml and frozen at −80° C. All manipulations were done at 0-4° C.
(ii) Receptor Binding Assay
The composition of incubation medium was as follows:
10 mM HEPES (pH 6.5), 5 mM MgCl2, 1 mM EGTA, 130 mM NaCI and 0.25 mg/ml bacitracin. Frozen membranes were thawed and aliquots (400 μg, protein) were incubated for 60 minutes under shaking at 37° C. in plastic tubes in 500 μL of incubation medium with 50 pM ^125I-CCK-8 in the presence or absence of test compound (1×10^−8 M). […] After washing the filter with 50 mM Tris-HCl (pH 7.4) buffer containing 0.1% BSA, the radioactivity of the filter was countered. […] The effect of the test compound was expressed as % inhibition of specific ′^125I-CCK-8 binding.

Another series deals with mice. Nature of the series: Gastric emptying in mice. Format: in vivo. The protocol: (§1) Receptor binding studies and gastric emptying in mice
(§2) The tests were carried out in accordance with the method described at pages 571 to 572 in the following literature;
(§3) Harunobu Ito, Hajime Sogabe et al., The Journal of Pharmacology and Experimental Therapeutics, 571, No.2, Vol.268 (1994).

Series [2] deals with T2, CCK-B (UniProt H0VZC5).
T2 construct: IC50 (nM) for CCK-B
T2 sequence (H0VZC5 1-426): T1 sequence (H0VZC5 1-426)
Nature of the series: Receptor binding studies, CCK-B. The protocol: as §1, §2, §3

Series [3] deals with CCK-B. Nature of the series: Receptor binding studies, CCK-B. The settings on record: ratio IC50 CCK-A / IC50 CCK-B. The protocol: as §1, §2, §3
The next series deals with T3, CCK-A (UniProt P30551).
T3 sequence (P30551 1-444): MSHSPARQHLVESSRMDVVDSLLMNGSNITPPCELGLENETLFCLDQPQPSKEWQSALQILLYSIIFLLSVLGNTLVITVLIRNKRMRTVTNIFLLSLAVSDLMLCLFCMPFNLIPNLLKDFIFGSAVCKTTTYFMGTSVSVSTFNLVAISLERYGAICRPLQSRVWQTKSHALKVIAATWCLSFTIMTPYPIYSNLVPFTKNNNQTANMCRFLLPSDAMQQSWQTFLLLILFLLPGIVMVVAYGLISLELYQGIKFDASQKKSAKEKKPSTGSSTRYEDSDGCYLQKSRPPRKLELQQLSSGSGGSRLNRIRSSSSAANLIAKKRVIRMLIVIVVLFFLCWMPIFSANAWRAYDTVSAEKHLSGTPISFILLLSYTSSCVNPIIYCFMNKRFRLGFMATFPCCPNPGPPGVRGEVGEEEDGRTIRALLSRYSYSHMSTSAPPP
Nature of the series: Receptor binding studies, CCK-A. The protocol:
as §1, §2, §3

In the case of `CC(=O)c1sccc1CN1C(=O)C(NC(=O)Nc2cccc(C)c2)N=C(C(C)C)c2ccccc21` (racemic) [(2)], the “Inhibition (%) of specific 125I-CCK-8 binding” value in series [1] stood at 97%.
For the compound `CCC1=NC(NC(=O)Nc2cccc(C)c2)C(=O)N(CC(=O)C2CCCCC2)c2c(C)cccc21` (racemic) [(B), N-[(3RS)-1-cyclohexylcarbonylmethyl-2,3-dihydro-5-ethyl-9-methyl-2-oxo-1H-1,4-benzodiazepin-3-yl]-N′-(3-methylphenyl)urea], the melting point – broadly, the temperature, or range, at which the solid turns liquid – is 161.2 to 164 °C. Also, the “Gastric emptying ID50” value with mice is 0.4 mg/kg. On CCK-B [2], the half-maximal inhibitory concentration (IC50) (usually the midpoint of a concentration-inhibition curve) turned out to be 1.6 nM. Moreover, in the series on CCK-B [3], the “selectivity A/B” value is 0.56. This compound also returned an IC50 at CCK-A of 0.9 nM.
For `Cc1cccc(NC(=O)NC2N=C(C3CC3)c3cccc(C)c3N(CC(=O)C3CCCCC3)C2=O)c1` (racemic) [(D), N-[(3RS)-1-cyclohexylcarbonylmethyl-5-cyclopropyl-2,3-dihydro-9-methyl-2-oxo-1H-1,4-benzodiazepin-3-yl]-N′-(3-methylphenyl)urea] the same measures were 143.6 to 144.2 °C, 1.8 mg/kg, 1.1 nM, 1.82 and 2 nM.
For `CC1=NC(NC(=O)Nc2cccc(C)c2)C(=O)N(CC(=O)C2CCCCC2)c2c(C)cccc21` (racemic) [Compound (A), N-[(3RS)-1-cyclohexylcarbonylmethyl-2,3-dihydro-5,9-dimethyl-2-oxo-1H-1,4-benzodiazepin-3-yl]-N′-(3-methylphenyl)urea], in that order: 179.2 to 180.9 °C, 0.4 mg/kg, 3.7 nM, 0.30 and 1.1 nM.
As to `CC1=NC(NC(=O)Nc2cccc(C)c2)C(=O)N(CC(=O)C2CCCC2)c2c(C)cccc21` (racemic) [Example 65, N-[(3RS)-1-Cyclopentylcarbonylmethyl-2,3-dihydro-5,9-dimethyl-2-oxo-1H-1,4-benzodiazepin-3-yl]-N′-(3-methylphenyl)urea], the melting point lay in the range of 150.1 to 155.5 °C.
Same read-out and setting: the result for `CCC1=NC(NC(=O)Nc2cccc(C)c2)C(=O)N(CC(=O)N2CCCCCCC2)c2c(C)cccc21` (racemic) [Example 66, N-[(3RS)-1-(Azacyclooctan-1-yl)carbonylmethyl-2,3-dihydro-5-ethyl-9-methyl-2-oxo-1H-1,4-benzodiazepin-3-yl]-N′-(3-methylphenyl)urea] reads 189 to 189.5 °C; that for `Cc1cccc(NC(=O)NC2N=C(C(C)C)c3cccc(C)c3N(CC(=O)N3CCCCCCC3)C2=O)c1` (racemic) [Example 67, N-[(3RS)-1-(Azacyclooctan-1-yl)carbonylmethyl-2,3-dihydro-5-isopropyl-9-methyl-2-oxo-1H-1,4-benzodiazepin-3-yl]-N′-(3-methylphenyl)urea], 131.7 to 132.8 °C; that for `Cc1cccc(NC(=O)NC2N=C(CC(C)C)c3cccc(C)c3N(CC(=O)N3CCCCCCC3)C2=O)c1` (racemic) [Example 69, N-[(3RS)-1-(Azacyclooctan-1-yl)carbonylmethyl-2,3-dihydro-5-isobutyl-9-methyl-2-oxo-1H-1,4-benzodiazepin-3-yl]-N′-(3-methylphenyl)urea], 131.6 to 133.4 °C.
Still for that read-out and setting: the result for `Cc1cccc(NC(=O)NC2N=C(C3CCCCC3)c3cccc(C)c3N(CC(=O)N3CCCCCCC3)C2=O)c1` (racemic) [Example 70, N-[(3RS)-1-(Azacyclooctan-1-yl)carbonylmethyl-5-cyclohexyl-2,3-dihydro-9-methyl-2-oxo-1H-1,4-benzodiazepin-3-yl]-N′-(3-methylphenyl)urea] reads 153.6 to 155.3 °C.
On the same count and under the same terms, then `Cc1cccc(NC(=O)NC2N=C(CO)c3cccc(C)c3N(CC(=O)N3CCCCCCC3)C2=O)c1` (racemic) [Example 71-2, N-[(3RS)-1-(Azacyclooctan-1-yl)carbonylmethyl-2,3-dihydro-5-hydroxymethyl-9-methyl-2-oxo-1H-1,4-benzodiazepin-3-yl]-N′-(3-methylphenyl)urea], with 214.5 to 216 °C; and `CC1=NC(NC(=O)Nc2cccc(C)c2)C(=O)N(CC(=O)C2CCCCCCC2)c2c(C)cccc21` (racemic) [Example 72, N-[(3RS)-1-Cyclooctylcarbonylmethyl-2,3-dihydro-5,9-dimethyl-2-oxo-1H-1,4-benzodiazepin-3-yl]-N′-(3-methylphenyl)urea], with 162.9 to 164.4 °C.
The compound `Cc1cccc(NC(=O)NC2N=C(CC(C)C)c3cccc(C)c3N(CC(=O)C3CCCCC3)C2=O)c1` (racemic) [Example 73, N-[(3RS)-1-Cyclohexylcarbonylmethyl-2,3-dihydro-5-isobutyl-9-methyl-2-oxo-1H-1,4-benzodiazepin-3-yl]-N′-(3-methylphenyl)urea] gave a melting point of 152.3 to 154.8 °C.
For the compound `CCC1=N[C@@H](NC(=O)Nc2cccc(C)c2)C(=O)N(CC(=O)C2CCCCC2)c2c(C)cccc21` [(C), N-[(3R)-1-cyclohexylcarbonylmethyl-5-ethyl-9-methyl-2-oxo-2,3-dihydro-1H-1,4-benzodiazepin-3-yl]-N′-(3-methylphenyl)urea], in the series on mice, the “Gastric emptying ID50” value came to 0.23 mg/kg. In addition, the IC50 at CCK-B [2] worked out at 1 nM; on CCK-A it was 0.3 nM. In the series with CCK-B [3], the “selectivity A/B” value is 0.30.
